Read-outs that look alike come from different tables or passages of the source.
Assays:
ypt1^ts cells = assay: Rescue of growth of ypt1^ts mutant yeast (OD600); assay type: cell-based; details: Saccharomyces cerevisiae, read-out: Ypt1-ts MRC (Minimum Rescue Concentration), ypt1^ts cells, 35° C. and 37° C., OD600; multiple results separated by a comma
Text: The activity of the compounds as modulators of protein trafficking may be measured in the assays described herein that evaluate the ability of a compound to rescue an impairment in protein trafficking. For example, the yeast mutant cell line ypt1^ts can be used to identify compounds that rescue cells from the lethal phenotype of a mutant YPT1 allele (see, e.g., Examples and Schmitt et al. (1988) Cell 53:635-47). The activity may be measured, for example, in a whole yeast cell assay using 384-well screening protocol and an optical density measurement.
The yeast mutant cell line ypt1^ts suppresses, in a temperature dependent fashion, the dominant-lethal phenotype of a mutant YPT1 allele (Schmitt et al. (1988) Cell 53:635-47). The yeast mutant cell line ypt1^ts contains an allele of YPT1 that has two point mutations: one that changes an asparagine at position 121 to a isoleucine (N121I) and another that changes an alanine at position 161 to a valine (A161V). The N121I mutation causes dominant lethality by itself, but lethality is suppressed by the second mutation, resulting in a recessive loss of function phenotype at the restrictive temperatures. ypt1^ts cells grow normally at temperatures up to 25° C., but are growth arrested at 37° C. (Id.).
Compounds were screened to assess their ability to restore growth of ypt1^ts cells. The effect of the compounds was measured on ypt1^ts cells cultured at room temperature (permissive temperature), 37° C. (non-permissive temperature), and 35° C. (semi-permissive temperature).
To determine if the test compounds could rescue the ypt1^ts mutant phenotype, ypt1^ts cells were grown overnight in synthetic complete (SC) media supplemented with 2% glucose at room temperature. Log phase cells were diluted into SC 2% glucose media to an OD600 of 0.003. 100 μL of this culture was then aliquoted into each well of 96-well flat bottom microtiter plates. 1 μL of the test compounds dissolved in DMSO (at a concentration range from 5 mM-0.005 mM) or of DMSO alone was added to each well (50 μM-0.05 μM final concentration in 1% DMSO). Plates were mixed by vortexing and incubated at 35° C. and 37° C. Compound rescue of the ypt1^ts temperature sensitive defect was assessed by measuring the OD600 (optical density at 600 nm; cell growth) of the cultures. Plates incubated at 35° C. were measured at 24 and 40 hours incubation time while plates grown at 37° C. were measured after 40 hours of incubation.
Assays monitoring the rescue of ypt1^ts mutants were performed using a vehicle, a positive control (calcium), and the compounds identified in Table II. Results in Table II corresponding to an MRC (Minimum Rescue Concentration) for ypt1^ts of greater than or equal to 50 micromolar are labeled +; of an MRC for ypt1^ts of 10-50 micromolar are labeled ++; and of an MRC for ypt1^ts of less than 10 micromolar are labeled +++. Multiple results for a particular compound are separated by a comma.

ΔF508 CFTR = ΔF508 CFTR (Homo sapiens, UniProt P13569, DEL508-508); assay: Corrector activity, YFP halide (iodide) quenching assay in FRT cells expressing ΔF508 CFTR; assay type: cell-based; parameters: expressed in transfected cells; host or cells: Fischer rat thyroid (FRT) cells; details: 24 hours with compound at 37° C., forskolin and genistein
How it was run: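 FRT cells co-expressing ΔF508 CFTR and halide-sensitive YFP were incubated 24 h at 37° C with compounds, then stimulated 30 min at 37° C in PBS with forskolin and genistein. Endpoint fluorescence after iodide injection was normalized to initial reading; EC50 from 4-parameter fit with bottom constrained to DMSO control.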

[1] = FRT cells ΔF508 CFTR/YFP, read-out: Corrector EC50
[2] = Corrector EC50, FRT cells ΔF508 CFTR/YFP

Sequence of ΔF508 CFTR (P13569 with tags, fused parts or gaps DEL508-508): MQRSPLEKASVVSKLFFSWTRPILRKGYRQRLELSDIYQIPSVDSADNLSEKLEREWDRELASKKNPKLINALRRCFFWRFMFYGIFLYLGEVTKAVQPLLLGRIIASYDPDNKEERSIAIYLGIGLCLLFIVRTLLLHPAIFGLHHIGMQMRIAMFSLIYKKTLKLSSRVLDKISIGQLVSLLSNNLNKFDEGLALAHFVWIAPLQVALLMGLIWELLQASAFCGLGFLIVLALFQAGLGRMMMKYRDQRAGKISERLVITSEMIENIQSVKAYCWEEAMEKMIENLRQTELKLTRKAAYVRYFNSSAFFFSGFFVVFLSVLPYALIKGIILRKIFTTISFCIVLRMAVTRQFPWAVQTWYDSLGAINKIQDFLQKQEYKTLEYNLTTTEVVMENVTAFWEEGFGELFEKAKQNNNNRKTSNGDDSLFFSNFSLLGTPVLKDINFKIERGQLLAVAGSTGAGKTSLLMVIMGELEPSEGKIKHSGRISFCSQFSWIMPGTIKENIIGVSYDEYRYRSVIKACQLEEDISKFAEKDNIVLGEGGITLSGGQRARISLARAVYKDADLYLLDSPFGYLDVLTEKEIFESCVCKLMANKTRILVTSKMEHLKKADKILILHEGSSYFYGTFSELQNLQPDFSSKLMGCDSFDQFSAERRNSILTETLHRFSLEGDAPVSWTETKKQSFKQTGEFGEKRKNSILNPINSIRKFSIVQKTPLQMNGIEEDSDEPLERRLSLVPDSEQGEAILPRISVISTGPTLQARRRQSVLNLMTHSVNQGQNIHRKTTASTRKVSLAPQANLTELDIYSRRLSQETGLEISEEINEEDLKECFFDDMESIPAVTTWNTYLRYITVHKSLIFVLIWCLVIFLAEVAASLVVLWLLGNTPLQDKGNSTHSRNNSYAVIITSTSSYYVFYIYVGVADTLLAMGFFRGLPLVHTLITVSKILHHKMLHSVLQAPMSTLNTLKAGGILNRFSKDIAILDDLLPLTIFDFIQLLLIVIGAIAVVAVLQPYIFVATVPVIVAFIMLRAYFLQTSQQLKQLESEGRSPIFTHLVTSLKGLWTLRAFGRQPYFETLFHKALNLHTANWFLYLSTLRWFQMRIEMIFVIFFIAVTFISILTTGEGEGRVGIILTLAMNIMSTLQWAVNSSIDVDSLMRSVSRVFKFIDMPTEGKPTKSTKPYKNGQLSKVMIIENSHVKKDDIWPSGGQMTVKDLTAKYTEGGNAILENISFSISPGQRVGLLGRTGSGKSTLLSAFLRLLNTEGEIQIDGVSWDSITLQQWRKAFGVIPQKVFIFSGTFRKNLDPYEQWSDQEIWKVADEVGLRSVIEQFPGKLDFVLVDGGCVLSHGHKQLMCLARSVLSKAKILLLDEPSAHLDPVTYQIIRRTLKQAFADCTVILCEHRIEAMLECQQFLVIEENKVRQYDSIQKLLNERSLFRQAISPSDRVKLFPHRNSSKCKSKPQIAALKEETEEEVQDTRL

Cn1nc(-c2ccc(Cl)cc2)c2c(N)ncnc21 [compound 1]
minimal effective concentration (ypt1^ts cells): > 50 µM | EC50 (ΔF508 CFTR; [1]): > 15 µM

Nc1ncnc2c1c(-c1ccc(Cl)cc1)nn2C1CCCCC1 [compound 3]
minimal effective concentration (ypt1^ts cells): > 50 µM | EC50 (ΔF508 CFTR; [1]): > 15 µM

Nc1ncnc2c1c(-c1ccc(Cl)cc1)nn2-c1ccccc1 [compound 4]
minimal effective concentration (ypt1^ts cells): > 50 µM | EC50 (ΔF508 CFTR; [1]): > 15 µM

CC(C)(C)n1nc(-c2cccc3ccccc23)c2c(N)ncnc21 [compound 6]
minimal effective concentration (ypt1^ts cells): 10 to 50 µM | EC50 (ΔF508 CFTR; [2]): > 15 µM

CC(C)(C)n1nc(-c2ccccc2)c2c(N)ncnc21 [compound 8]
minimal effective concentration (ypt1^ts cells): > 50 µM | EC50 (ΔF508 CFTR; [1]): > 15 µM

CC(C)(C)n1nc(-c2cc3ccccc3s2)c2c(N)ncnc21 [compound 16, 3-Benzo[b]thiophen-2-yl-1-tert-butyl-1H-pyrazolo[3,4-d]pyrimidin-4-ylamine]
minimal effective concentration (ypt1^ts cells): > 50 µM | EC50 (ΔF508 CFTR; [1]): > 15 µM

Cc1ccc(Cc2nn(C(C)(C)C)c3ncnc(N)c23)cc1 [compound 22]
minimal effective concentration (ypt1^ts cells): 10 to 50 µM

CC(C)(C)n1nc(Cc2ccc3c(c2)OCO3)c2c(N)ncnc21 [compound 23]
minimal effective concentration (ypt1^ts cells): 10 to 50 µM

Cc1ccc(-c2nn(C(C)(C)C)c3ncnc(N)c23)cc1 [compound 24]
minimal effective concentration (ypt1^ts cells): 10 to 50 µM | EC50 (ΔF508 CFTR; [2]): 2 to 5 µM

CC(C)n1nc(-c2ccc(Cl)cc2)c2c(N)ncnc21 [compound 27]
minimal effective concentration (ypt1^ts cells): 10 to 50 µM | EC50 (ΔF508 CFTR; [1]): 2 to 5 µM

Nc1ncnc2c1c(-c1ccc(Cl)cc1)nn2Cc1ccccc1 [compound 28]
minimal effective concentration (ypt1^ts cells): 10 to 50 µM

Nc1ncnc2c1c(-c1ccc(Cl)cc1)nn2CC1CC1 [compound 29, 3-(4-Chloro-phenyl)-1-cyclopropylmethyl-1H-pyrazolo[3,4-d]pyrimidin-4-ylamine]
minimal effective concentration (ypt1^ts cells): < 10 µM | EC50 (ΔF508 CFTR; [1]): 5 to 10 µM

C#CCn1nc(-c2ccc(Cl)cc2)c2c(N)ncnc21 [compound 30]
minimal effective concentration (ypt1^ts cells): > 50 µM | EC50 (ΔF508 CFTR; [1]): > 15 µM

C=CCn1nc(-c2ccc(Cl)cc2)c2c(N)ncnc21 [compound 32]
minimal effective concentration (ypt1^ts cells): > 50 µM | EC50 (ΔF508 CFTR; [1]): > 15 µM

CC(C)(C)n1nc(-c2ccc(C#N)cc2)c2c(N)ncnc21 [compound 35]
minimal effective concentration (ypt1^ts cells): > 50 µM

CC(C)(C)n1nc(-c2ccc(Cl)c(Cl)c2)c2c(N)ncnc21 [compound 36]
minimal effective concentration (ypt1^ts cells): > 50 µM

CC(C)(C)n1nc(-c2ccsc2)c2c(N)ncnc21 [compound 37]
minimal effective concentration (ypt1^ts cells): > 50 µM

CC(C)(C)n1nc(-c2cc3ccccc3o2)c2c(N)ncnc21 [compound 42]
minimal effective concentration (ypt1^ts cells): > 50 µM

Cc1ccc(-c2nn(C(C)(C)C)c3ncc(C(=O)O)c(N)c23)cc1 [compound 45, 4-Amino-1-tert-butyl-3-p-tolyl-1H-pyrazolo[3,4-b]pyridine-5-carboxylic acid]
minimal effective concentration (ypt1^ts cells): > 50 µM

CC(C)(C)n1nc(CCc2ccccc2)c2c(N)ncnc21 [compound 48]
minimal effective concentration (ypt1^ts cells): > 50 µM

CC(c1ccccc1)c1nn(C(C)(C)C)c2ncnc(N)c12 (centres unmarked) [compound 49]
minimal effective concentration (ypt1^ts cells): 10 to 50 µM

CC(C)(C)n1nc(Cc2cccc(F)c2)c2c(N)ncnc21 [compound 50]
minimal effective concentration (ypt1^ts cells): 10 to 50 µM

CC(C)(C)n1nc(Cc2ccc(F)cc2)c2c(N)ncnc21 [compound 51]
minimal effective concentration (ypt1^ts cells): > 50 µM

Cc1cccc(Cc2nn(C(C)(C)C)c3ncnc(N)c23)c1 [compound 52]
minimal effective concentration (ypt1^ts cells): 10 to 50 µM

CCn1nc(-c2ccc(Cl)cc2)c2c(N(C(C)=O)C(C)=O)ncnc21 [compound 54]
minimal effective concentration (ypt1^ts cells): > 50 µM

COc1cccc(Cc2nn(C(C)(C)C)c3ncnc(N)c23)c1 [compound 56]
minimal effective concentration (ypt1^ts cells): 10 to 50 µM

Cc1nc(N)c2c(-c3ccc(Cl)cc3)nn(C(C)(C)C)c2n1 [compound 57]
minimal effective concentration (ypt1^ts cells): 10 to 50 µM

CC(C)(C)n1nc(Cc2cccc(Br)c2)c2c(N)ncnc21 [compound 58]
minimal effective concentration (ypt1^ts cells): < 10 µM

CC(C)(C)n1nc(Cc2cccc(C#N)c2)c2c(N)ncnc21 [compound 59]
minimal effective concentration (ypt1^ts cells): > 50 µM

CC(C)(C)n1nc(Cc2cccc(-c3ccccc3)c2)c2c(N)ncnc21 [compound 60]
minimal effective concentration (ypt1^ts cells): > 50 µM

CCc1nc(N)c2c(-c3ccc(Cl)cc3)nn(C(C)(C)C)c2n1 [compound 61]
minimal effective concentration (ypt1^ts cells): > 50 µM

CC(C)(C)n1nc(-c2ccc(Cl)cc2)c2c(N)nc(C3CC3)nc21 [compound 62]
minimal effective concentration (ypt1^ts cells): > 50 µM

CC(C)(C)n1nc(-c2ccc(Cl)cc2)c2c(N)nc(CC3CC3)nc21 [compound 63]
minimal effective concentration (ypt1^ts cells): > 50 µM

C#Cc1cccc(Cc2nn(C(C)(C)C)c3ncnc(N)c23)c1 [compound 64]
minimal effective concentration (ypt1^ts cells): 10 to 50 µM

Cc1ccc(Cc2nn(C(C)(C)C)c3ncnc(N)c23)cc1C [compound 65]
minimal effective concentration (ypt1^ts cells): 10 to 50 µM

CC(C)(C)n1nc(Cc2cccc3c2OCC3)c2c(N)ncnc21 [compound 66]
minimal effective concentration (ypt1^ts cells): 10 to 50 µM

CC(C)(C)n1nc(Cc2cccc3ccoc23)c2c(N)ncnc21 [compound 68]
minimal effective concentration (ypt1^ts cells): 10 to 50 µM

Cc1ccc(-c2nn(C(C)(C)C)c3nccc(N)c23)cc1 [compound 69, 1-tert-Butyl-3-p-tolyl-1H-pyrazolo[3,4-b]pyridin-4-ylamine]
minimal effective concentration (ypt1^ts cells): > 50 µM

Nc1ncnc2[nH]nc(Cc3cccc4ccccc34)c12 [compound 70]
minimal effective concentration (ypt1^ts cells): > 50 µM

CCn1nc(Cc2cccc3ccccc23)c2c(N)ncnc21 [compound 71]
minimal effective concentration (ypt1^ts cells): < 10 µM

Nc1ncnc2c1c(Cc1cccc3ccccc13)nn2CC1CC1 [compound 72]
minimal effective concentration (ypt1^ts cells): < 10 µM

Nc1ncnc2c1c(Cc1cccc3ccccc13)nn2C1CC1 [compound 73]
minimal effective concentration (ypt1^ts cells): < 10 µM

CC(C)Cn1nc(Cc2cccc3ccccc23)c2c(N)ncnc21 [compound 75]
minimal effective concentration (ypt1^ts cells): < 10 µM

C=CCn1nc(Cc2cccc3ccccc23)c2c(N)ncnc21 [compound 76]
minimal effective concentration (ypt1^ts cells): 10 to 50 µM

CC(C)n1nc(Cc2cccc3ccccc23)c2c(N)ncnc21 [compound 78]
minimal effective concentration (ypt1^ts cells): < 10 µM

CC(C)(C)n1nc(COCc2ccccc2)c2c(N)ncnc21 [compound 81, 3-benzyloxymethyl-1-tert-butyl-1H-pyrazolo[3,4-d]pyrimidin-4-ylamine]
minimal effective concentration (ypt1^ts cells): > 50 µM

CC(C)(C)n1nc(C(O)c2ccccc2)c2c(N)ncnc21 (centres unmarked) [compound 82, (4-amino-1-tert-butyl-1H-pyrazolo[3,4-d]pyrimidin-3-yl)-phenyl-methanol]
minimal effective concentration (ypt1^ts cells): > 50 µM

CC(C)(C)n1nc(C(=O)c2ccccc2)c2c(N)ncnc21 [compound 83, (4-Amino-1-tert-butyl-1H-pyrazolo[3,4-d]pyrimidin-3-yl)-phenyl-methanone]
minimal effective concentration (ypt1^ts cells): > 50 µM

CC(C)(C)n1nc(C(=O)O)c2c(N)ncnc21 [compound 85, 4-Amino-1-tert-butyl-1H-pyrazolo[3,4-d]pyrimidine-3-carboxylic acid]
minimal effective concentration (ypt1^ts cells): > 50 µM

CN(C)c1cccc(C(O)c2nn(C(C)(C)C)c3ncnc(N)c23)c1 (centres unmarked) [compound 87]
minimal effective concentration (ypt1^ts cells): > 50 µM

CC(C)(C)n1nc(CNc2ccccc2)c2c(N)ncnc21 [compound 88]
minimal effective concentration (ypt1^ts cells): 10 to 50 µM

CC(C)(C)n1nc(C(N)=O)c2c(N)ncnc21 [compound 89, 4-Amino-1-tert-butyl-1H-pyrazolo[3,4-d]pyrimidine-3-carboxylic acid amide]
minimal effective concentration (ypt1^ts cells): > 50 µM

CC(C)(C)n1nc(Cc2ccc(F)c3ccccc23)c2c(N)ncnc21 [compound 91]
minimal effective concentration (ypt1^ts cells): < 10 µM

CC(C)(C)n1nc(Cc2cccc3ccccc23)c2c(N)nc(C3CC3)nc21 [compound 92]
minimal effective concentration (ypt1^ts cells): > 50 µM

Reference: patent publication US20100331297A1, “MODULATION OF PROTEIN TRAFFICKING” (FOLDRX PHARMACEUTICALS, INC., priority 2007, published 2010)
